Test results taken from ChEMBL document CHEMBL3132743, “Synthesis of hetero annulated carbazoles: exploration of in vitro cytotoxicity and molecular docking studies” (Medchemcomm, 2013).
pIC50: −log10 of the molar value.

Columns and labels:
HeLa [1] = assay: Cytotoxicity against human HeLa cells after 48 hrs by MTT assay; type: functional, cell-based
MCF7 = assay: Cytotoxicity against human MCF7 cells after 48 hrs by MTT assay; type: functional, cell-based; settings: MCF7, 48 h
HeLa [2] = assay: Ratio of ellipticine IC50 to compound IC50 for human HeLa cells; type: functional

| SMILES | pIC50 (HeLa [1]) | pIC50 (MCF7) | Ratio IC50 (HeLa [2]) |
| --- | --- | --- | --- |
| O=C1/C(=C/c2cc3c(ccc4ccccc43)nc2Cl)CCc2c1[nH]c1ccc(Cl)cc21 | 4.49 | 4.12 |  |
| CCOc1nc2c(c(-c3cc4c(ccc5ccccc54)nc3Cl)c1C#N)CCc1c-2[nH]c2ccc(Cl)cc12 | 5.09 | 4.46 | 1.21 |
| Nc1nc(-c2cc3c(ccc4ccccc43)nc2Cl)c2ccc3c4ccccc4[nH]c3c2n1 | 4.73 | 4.37 |  |
| Cc1ccc2[nH]c3c(c2c1)CC/C(=C\c1cc2c(ccc4ccccc42)nc1Cl)C3=O | 4.45 | < 4.00 |  |
| O=C1/C(=C/c2cc3c(ccc4ccccc43)nc2Cl)CCc2c1[nH]c1ccccc21 | 4.37 | < 4.00 |  |
| CCOc1nc2c(c(-c3cc4c(ccc5ccccc54)nc3Cl)c1C#N)CCc1c-2[nH]c2ccc(C)cc12 | 5.02 | 4.43 |  |
| Nc1nc(-c2cc3c(ccc4ccccc43)nc2Cl)c2ccc3c4cc(Cl)ccc4[nH]c3c2n1 | 4.91 | 4.49 |  |
| Cc1c2ccncc2c(C)c2c1[nH]c1ccccc12 [ELLIPTECINE] | 5.01 | 4.78 |  |
| Cc1ccc2[nH]c3c(c2c1)CCc1c-3noc1-c1cc2c(ccc3ccccc32)nc1Cl | 4.58 | 4.17 |  |
| Clc1nc2ccc3ccccc3c2cc1-c1onc2c1CCc1c-2[nH]c2ccccc12 | 4.56 | 4.15 |  |
| Clc1ccc2[nH]c3c(c2c1)CCc1c-3noc1-c1cc2c(ccc3ccccc32)nc1Cl | 4.65 | 4.26 |  |
| Cc1ccc2[nH]c3c(ccc4c(-c5cc6c(ccc7ccccc76)nc5Cl)nc(N)nc43)c2c1 | 4.83 | 4.40 |  |
| CCOc1nc2c(c(-c3cc4c(ccc5ccccc54)nc3Cl)c1C#N)CCc1c-2[nH]c2ccccc12 | 4.91 | 4.33 |  |
